In patent publication US5705487A, “Antithrombotic agents” (priority 1995, dated 1998):
Counter-ions that a name gives are not always drawn.

Columns and labels:
Assay type in all cases: biochemical
Human Plasma [1] = assay: Human plasma anticoagulation, thrombin time (TT); settings: concentration required to double the clotting time
Description: (§1) Dog plasma and rat plasma is obtained from conscious mixed-breed hounds (either sex, Hazelton-LRE, Kalamazoo, Mich., U.S.A.) or from anesthetized male Sprague-Dawley rats (Harlan Sprague-Dawley, Inc., Indianapolis, Ind., U.S.A.) by venipuncture into 3.8 percent citrate. Fibrinogen is prepared from in-date ACD human blood as the fraction I-2 according to previous procedures and specifications. […] Human fibrinogen is also purchased as 98 percent pure/plasmin free from American Diagnostica, Greenwich, Conn. Coagulation reagents ACTIN, Thromboplastin, and Human plasma are from Baxter Healthcare Corp., Dade Division, Miami, Fla. Bovine thrombin from Parke-Davis ([…], Mich.) is used for coagulation assays in plasma.
(§2) Coagulation assay procedures are as previously described. […] A CoAScreener coagulation instrument (American LABor, Inc.) is used for all coagulation assay measurements. The prothrombin time (PT) is measured by adding 0.05 mL saline and 0.05 mL Thromboplastin-C reagent to 0.05 mL test plasma. The activated partial thromboplastin time (APTT) is measured by incubation of 0.05 mL test plasma with 0.05 mL Actin reagent for 120 seconds followed by 0.05 mL CaCl2 (0.02M). The thrombin time (TT) is measured by adding 0.05 mL saline and 0.05 mL thrombin (10 NIH units/mL) to 0.05 mL test plasma. The compounds of Formula I are added to human or animal plasma over a wide range of concentrations to determine prolongation effects on the APTT, PT, and TT assays. Linear extrapolations are performed to estimate the concentrations required to double the clotting time for each assay.

Human Thrombin = Human Thrombin (Homo sapiens, UniProt P00734); assay: Inhibition of the amidase activity of thrombin (Kass); settings: chromogenic substrate N-benzoyl-Phe-Val-Arg-p-nitroanilide; mean over range of concentrations
Human Plasma [2] = assay: Human plasma anticoagulation, activated partial thromboplastin time (APTT); settings: concentration required to double the clotting time
Description: as §1, §2

Bovine trypsin = target: T1, Bovine trypsin (Bos taurus, UniProt P00760); assay: Kass, trypsin chromogenic substrate assay; settings: substrate N-Benzoyl-Phe-Val-Arg-p-nitroanilide
T1 construct: Bovine trypsin is purchased from Worthington Biochemicals; purchased Worthington Biochemicals, Freehold, N.J
T1 sequence (P00760 24-246): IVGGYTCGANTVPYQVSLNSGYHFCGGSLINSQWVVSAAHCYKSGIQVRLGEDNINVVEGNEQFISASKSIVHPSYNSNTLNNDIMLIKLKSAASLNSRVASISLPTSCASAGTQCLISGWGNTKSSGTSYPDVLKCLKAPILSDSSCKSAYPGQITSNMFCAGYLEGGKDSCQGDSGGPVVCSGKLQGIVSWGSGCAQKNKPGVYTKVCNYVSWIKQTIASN

Human Plasma [3] = assay: Human plasma anticoagulation, prothrombin time (PT); settings: concentration required to double the clotting time
Description: as §1, §2

Row | Molecule | Kass × 10^6 (L/mole) Human Thrombin (Human Thrombin) | Kass × 10^6 (L/mole) Trypsin (Bovine trypsin) | Human Plasma Anticoagulation 2x Clotting time TT (Human Plasma [1]) [ng/mL] | Human Plasma Anticoagulation 2x Clotting time APTT (Human Plasma [2]) | Human Plasma Anticoagulation 2x Clotting time PT (Human Plasma [3])
1 | 1-Piq-Pro-p-NHCH2 C6 H4 C(NH)NH2.2HCl [Example 18] | – | – | 7 | – | –
2 | CCS(=O)(=O)N[C@@H](C(=O)N1[C@H](C(=O)NCc2ccc(C(=N)N)cc2)C[C@@H]2CCCC[C@@H]21)c1ccccc1 (relative stereo) [Example 44, EtSO2 -Phg-cis-Ohi-p-NHCH2 C6 H4 C(NH)NH2.HCl] | – | – | 4. | – | –
3 | N=C(N)C1CCC(CNC(=O)[C@@H]2CCCN2C(=O)[C@@H](CC2CCCCC2)NCC(=O)O)NC1 (stereo partly drawn) [Example 67, HO2 CCH2 -D-Cha-Pro-2-NHCH2 -5-amidinopiperidine.HCl] | 11 × 10^6 L/mole | – | 34. | 1,800 ng/mL | 1,300 ng/mL
4 | Cl.N=C(N)C1=CNC(CNC(=O)[C@@H]2CCCN2C(=O)[C@@H](CC2CCCCC2)NCC(=O)O)CC1 (stereo partly drawn) [Example 68, HO2 CCH2 -D-Cha-Pro-2-NHCH2 -5-amidino-5,6-dehydro-piperidine.HCl] | 600 × 10^6 L/mole | – | 4. | 49 ng/mL | 190 ng/mL
5 | Cl.N=C(N)c1ccc(CNC(=O)[C@@H]2CCCN2C(=O)[C@@H](CC2CCCCC2)NCC(=O)O)nn1 [Example 69, HO2 CCH2 -D-Cha-Pro-3-NHCH2 -6-amidinopyridazine.HCl] | 340 × 10^6 L/mole | 3.7 × 10^6 L/mole | 5. | 110 ng/mL | 220 ng/mL
6 | Cl.N=C(N)N1CC=C(CNC(=O)[C@@H]2CCCN2C(=O)[C@@H](CC2CCCCC2)NCC(=O)O)CC1 [Example 70, HO2 CCH2 -D-Cha-Pro-4-NHCH2 -1-amidino-3,4-dehydro-piperidine.HCl] | 430 × 10^6 L/mole | 9.8 × 10^6 L/mole | 2 | 160 ng/mL | 180 ng/mL
7 | Cl.N=C(N)c1ccc(CNC(=O)[C@@H]2CCCN2C(=O)[C@@H](CC2CCCCC2)NCC(=O)O)c(F)c1 [Example 71, HO2 CCH2 -D-Cha-Pro-4-NHCH2 -3-F-benzamidine.HCl] | 1,400 × 10^6 L/mole | 240. × 10^6 L/mole | 1 | 89 ng/mL | 150 ng/mL
8 | Cl.N=C(N)c1cc(F)c(CNC(=O)[C@@H]2CCCN2C(=O)[C@@H](CC2CCCCC2)NCC(=O)O)c(F)c1 [Example 72, HO2 CCH2 -D-Cha-Pro-4-NHCH2 -3,5-F2 -benzamidine.HCl] | 2,300 × 10^6 L/mole | 280 × 10^6 L/mole | 1 | 160 ng/mL | 160 ng/mL
9 | Nc1ccc(CNC(=O)[C@@H]2CCCN2C(=O)[C@@H](CC2CCCCC2)NCC(=O)O)cc1F [Example 77, HO2 CCH2 -D-Cha-Pro-4-NHCH2 -2-F-aniline.HCl] | 11 × 10^6 L/mole | – | 53 | 1,600 ng/mL | 890 ng/mL
10 | NCC1CCC(CNC(=O)[C@@H]2CCCN2C(=O)[C@@H](CC2CCCCC2)NCC(=O)O)CC1 (stereo partly drawn) [Example 79, HO2 CCH2 -D-Cha-Pro-4-NHCH2 C6 H10 CH2 NH2.HCl] | 2.0 × 10^6 L/mole | 0.24 × 10^6 L/mole | 140 | 1,700 ng/mL | 2,400 ng/mL
11 | CCS(=O)(=O)N[C@H](CC1CCCCC1)C(=O)N1CCC[C@H]1C(=O)NCc1ccc(C(=N)N)cc1.Cl [Example 80, EtSO2 -D-Cha-Pro-4-NHCH2 C6 H4 C(NH)NH2.HCl] | – | 90. × 10^6 L/mole | 4 | 40 ng/mL | 130 ng/mL
12 | CCS(=O)(=O)N[C@H](CC1CCCCC1)C(=O)N1CCC[C@H]1C(=O)NCc1ccc(N)cc1F.Cl [Example 82, EtSO2 -D-Cha-Pro-4-NHCH2 -3-F-C6 H3 NH2.HCl] | 5.0 × 10^6 L/mole | – | 130 | 3,800 ng/mL | 3,000 ng/mL
13 | N=C(N)c1ccc(CNC(=O)[C@@H]2CCCN2C(=O)[C@H](NCC(=O)O)C2CCCCC2)cc1 [Example 86, HOOCCH2 -D-Chg-Pro-p-NHCH2 C6 H4 C(NH)NH2.HCl] | – | – | 4 | – | –
14 | EtSO2 -D-Phe-Pro-p-NHCH2 -C6 H4 C(=NH)NH2.HCl [Example 23] | – | – | 7 | – | –
15 | HOOCCH2 -D-Phe-Pro-p-NHCH2 C6 H4 C(NH)NH2.HCl [Example 46] | – | – | 2. | – | –

Further lines, with some results ahead:

Row | Kass × 10^6 (L/mole) Human Thrombin (Human Thrombin) | Kass × 10^6 (L/mole) Trypsin (Bovine trypsin) | Molecule | Human Plasma Anticoagulation 2x Clotting time TT (Human Plasma [1]) [ng/mL] | Human Plasma Anticoagulation 2x Clotting time APTT (Human Plasma [2]) | Human Plasma Anticoagulation 2x Clotting time PT (Human Plasma [3])
16 | 7.6 × 10^6 L/mole | – | Nc1ccc(CNC(=O)[C@@H]2CCCN2C(=O)[C@@H](CC2CCCCC2)NCC(=O)O)cc1 [Example 62, HO2 CCH2 -D-Cha-Pro-4-NHCH2 C6 H4 NH2.HCl] | 54 | – | –
17 | 0.31 × 10^6 L/mole | – | Nc1ccc(CCNC(=O)[C@@H]2CCCN2C(=O)[C@@H](CC2CCCCC2)NCC(=O)O)cc1 [Example 63, HO2 CCH2 -D-Cha-Pro-4-NHCH2 CH2 C6 H4 NH2.HCl] | 680 | – | –
18 | 4,500 × 10^6 L/mole | – | Cl.N=C(N)c1cc(CNC(=O)[C@@H]2CCCN2C(=O)[C@@H](CC2CCCCC2)NCC(=O)O)cs1 [Example 65, HO2 CCH2 -D-Cha-Pro-4-NHCH2 -2-amidinothiophene.HCl] | 1 | 48 ng/mL | –
19 | 120 × 10^6 L/mole | 4.6 × 10^6 L/mole | N=C(N)c1ccc(CNC(=O)[C@@H]2CCCN2C(=O)[C@@H](CC2CCCCC2)NCC(=O)O)nc1 [Example 66, HO2 CCH2 -D-Cha-Pro-2-NHCH2 -5-amidinopyridine.HCl] | 7.9 | 180 ng/mL | 270 ng/mL
20 | 28 × 10^6 L/mole | – | Cl.Nc1cc(CNC(=O)[C@@H]2CCCN2C(=O)[C@@H](CC2CCCCC2)NCC(=O)O)ccn1 [Example 73, HO2 CCH2 -D-Cha-Pro-4-NHCH2 -2-aminopyridine.HCl] | 21 | 340 ng/mL | 330 ng/mL
21 | 29 × 10^6 L/mole | – | Cl.Nc1ccc(CNC(=O)[C@@H]2CCCN2C(=O)[C@@H](CC2CCCCC2)NCC(=O)O)cn1 [Example 74, HO2 CCH2 -D-Cha-Pro-5-NHCH2 -2-aminopyridine.HCl] | 20 | 420 ng/mL | 350 ng/mL
22 | 0.45 × 10^6 L/mole | – | Cl.Nc1ccc(CCNC(=O)[C@@H]2CCCN2C(=O)[C@@H](CC2CCCCC2)NCC(=O)O)cn1 [Example 75, HO2 CCH2 -D-Cha-Pro-5-NHCH2 CH2 -2-aminopyridine.HCl] | – | – | –
23 | 12 × 10^6 L/mole | 0.36 × 10^6 L/mole | Cl.Nc1cc(CCNC(=O)[C@@H]2CCCN2C(=O)[C@@H](CC2CCCCC2)NCC(=O)O)ccn1 [Example 76, HO2 CCH2 -D-Cha-Pro-4-NHCH2 CH2 -2-aminopyridine.HCl] | 29 | 490 ng/mL | 560 ng/mL
24 | 11 × 10^6 L/mole | 8.6 × 10^6 L/mole | NCc1ccc(CNC(=O)[C@@H]2CCCN2C(=O)[C@@H](CC2CCCCC2)NCC(=O)O)cc1 [Example 78, HO2 CCH2 -D-Cha-Pro-4-NHCH2 C6 H4 CH2 NH2.HCl] | 46 | 430 ng/mL | 760 ng/mL
